Experimental data taken from PMC9045377, “CpxA Phosphatase Inhibitor Activates CpxRA and Is a Potential Treatment for Uropathogenic Escherichia coli in a Murine Model of Infection” (Microbiology Spectrum, 2022).
“Also recorded” adds a separate entry of the source. Structures can show the parent of a compound that is named as a salt.

Columns and labels:
UPEC strain CFT073 [1] = assay type: in vivo, Escherichia coli (in female CBA/J mice); conditions: compound 6 trial
Method: Four groups of eight female CBA/J mice were transurethrally inoculated with a target dose of ∼10^8 CFU of either CFT073 or CFT073ΔcpxA::cat. One group was treated with ciprofloxacin (2.5 mg/kg/dose dissolved in sterile distilled water) s.c. 12, 24, 36, 48, and 60 h after inoculation with CFT073 as described ([31]). The untreated CFT073 and CFT073ΔcpxA::cat inoculated groups were given the vehicle control s.c. at 12, 24, 36, 48, and 60 h after inoculation. The compound 6 treated group were given the drug (100 mg/kg) s.c. at 12, 36, and 60 h after inoculation with CFT073 and received the vehicle control s.c. at 24 and 48 h. The animals were sacrificed 4 h after the last treatment (64 h postinoculation) and CFU per milliliter or CFU per gram of tissue was determined in the urine, bladder, and kidneys.
Animal experiments were conducted according to the guidelines of the University of Michigan Institutional Animal Care and Use Committee. For the animal infection experiments, bacterial strains were cultured at 37°C in LB medium overnight with shaking ([30]). Female CBA/J mice (Jackson Laboratories, Bar Harbor, ME) were inoculated transurethrally with a target dose of ∼10^8 CFU of CFT073 or CFT073ΔcpxA::cat. Mice were subsequently treated 12 h later either with the vehicle, ciprofloxacin hydrochloride (PanReac AppliChem ITW Reagents; Jade Scientific), compound 1, compound 6, or compound 26 as described in Results and euthanized 4 h after the last treatment. Bacterial loads of each strain were calculated from the urine, bladder, and kidneys of mice as previously described; the limits of detection for these assays were 100 CFU/mL or 100 CFU/g of urine and tissue, respectively ([33]). Values of 50 CFU/mL or 50 CFU/g were assigned to specimens whose yields were below the limit of detection.
Due to the extreme skewness of the data, natural log transformation was used before the data were analyzed statistically. Descriptive statistics were calculated for all of the log-transformed variables. Statistical comparisons were done using analysis of variance (ANOVA) with follow-up pairwise tests adjusted for multiple comparisons using the Tukey procedure.

UPEC strain CFT073 [2] = assay type: in vivo, Escherichia coli (in female CBA/J mice)
CpxRA = system: CpxRA; design: method as in PMID 31104993; conditions: β-galactosidase reporter assay in E. coli; read-out: mean 50% effective concentration (EC50), CpxRA activation; cited from earlier work
[3] = Toxicity / clinical signs in mice; assay type: in vivo, female CBA/J mice; conditions: 100 mg/kg s.c. twice a day for 3 days
Method: We tested our initial hit, compound 1 ([31]) (Fig. 1), for toxicity in a murine model using criteria described in Materials and Methods. […] To test compound 1 for efficacy, female CBA/J mice were transurethrally inoculated with ∼1 × 10^8 CFU of UPEC strain CFT073; 12 h later, mice were treated with 100 mg/kg compound 1 (n = 10) or the vehicle control (n = 5) s.c. twice a day for 3 days and then sacrificed 4 h after the last dose. No effect was seen on the recovery of E. coli CFT073 in the urine, bladder, or kidneys (see Fig. S1 in the supplemental material). As compound 1 lacked efficacy, we aimed to improve the scaffold to enhance potency and eliminate the nitro group liability ([32]).
We developed a high-performance liquid chromatography-tandem mass spectrometry (HPLC-MS/MS) assay to measure compound 6 with a lower limit of quantification of 1 ng/mL. Single-dose PK parameters of compound 6 were determined in female CBA/J mice (n = 15) given 100 mg/kg s.c. dissolved in the vehicle. Blood was obtained from groups of 3 mice 1, 2, 4, 8, and 24 h postinjection.
Animal experiments were conducted according to the guidelines of the Indiana University School of Medicine Institutional Animal Care and Use Committee by the IU Simon Comprehensive Cancer Center In Vivo Therapeutics Core, a component of the Indiana Clinical Translational Science Institute. For the pilot toxicity study with compound 1, 4- to 6-week-old CBA/J female mice were obtained from Jackson Laboratory (Bar Harbor, ME) and were treated with compound 1 or the vehicle control twice a day for 3 days as described in the results. […] Toxicity was determined by the following criteria: deteriorating health-hunched posture, lack of grooming, failure to thrive, failure to eat and drink for >48 h, rapid loss of 15 to 20% body weight, inactivity with hunched posture, loss of righting reflex and inability to maintain upright posture, loss of general body condition with spine becoming visible, and dehiscence of wounds and/or evidence of infection at injection sites not responsive to veterinary treatment.

For `O=C(O)c1cn(C2CC2)c2cc(N3CCNCC3)c(F)cc2c1=O` [ciprofloxacin, ciprofloxacin hydrochloride, reference compound], the “CFU of CFT073 recovered in urine vs CFT073-inoculated vehicle control” value (UPEC strain CFT073 [1]; 8 mice/group, compound 6 100 mg/kg s.c. at 12, 36, 60 h, ciprofloxacin 2.5 mg/kg/dose s.c. at 12, 24, 36, 48, 60 h, sacrifice 64 h) was “significantly reduced”, the “CFU of CFT073 recovered in kidneys vs CFT073-inoculated vehicle control” value (UPEC strain CFT073 [1]; same regimens) was “significantly reduced” and the “recoverable CFU in urine vs CFT073-inoculated vehicle-treated controls” value (UPEC strain CFT073 [2]; compound 26 trial, 8 mice/group, compound 26 100 mg/kg s.c. at 12, 36, 60 h, ciprofloxacin 2.5 mg/kg/dose s.c. at 12, 24, 36, 48, 60 h, sacrifice 64 h) was “significantly lower”. For the same compound, the “recoverable CFU in kidneys vs CFT073-inoculated vehicle-treated controls” value (UPEC strain CFT073 [2]; compound 26 trial, same regimens) was “significantly lower”.

For `NC1CCCc2c1[nH]c1ccc([N+](=O)[O-])cc21` (centres unmarked) [compound 1, 6-nitro-2,3,4,9-tetrahydro-1H-carbazol-1-amine], the “recovery of E. coli CFT073 in the urine, bladder, or kidneys vs vehicle control” value (UPEC strain CFT073 [2]; 100 mg/kg s.c. twice a day for 3 days from 12 h after ~1 × 10^8 CFU transurethral, sacrificed 4 h after last dose) is listed as “no significant; also recorded: No effect”, the EC50 (CpxRA) is listed as 24.8 µM and the “duration of decreased activity after each dose” value [3] is listed as 20 min. The toxicity ([3]; n = 3, observed 14 days) was “exhibited no toxicity”.
